Source: US8309144B2, “Use of a cruciferous protein hydrolysate as a depigmentation agent or for a cosmetic and/or pharmaceutical composition” (ISP Investments Inc., priority 2004, dated 2012)

Tested on: melanin in the epidermis of ex vivo skin
Assay: Whitening effect on ex vivo skin, Fontana-Masson staining with image analysis of luminosity histograms (Example 5)
Format: cell-based, human
Description: Comparative studies were conducted using 1% of a non fermented rapeseed peptide hydrolysate for 72 hours, or 1% arbutin, known for its whitening effect, or a combination of both on ex vivo skin.
Skin biopsies are prepared as described in example 2. Four different conditions are tested: • Condition 1: control, no active ingredient is applied • Condition 2: Arbutin 1% is applied twice a day over a period of 72 hours • Condition 3: non fermented rapeseed extract is applied twice a day over a period of 72 hours • Condition 4: a combination of 1% of a non fermented rapeseed extract and 0.5% arbutin is applied twice a day over a period of 72 hours
A quantitative evaluation of the presence of melanin in the epidermis of the skin samples is carried out histologically, under an optical microscope, using the Fontana-Masson staining method as described in example 2.
To confirm visual observations and quantify the results, image analysis was performed using several image processing steps and analysis of luminosity histograms.
All date were normalized to the length of the basal layer within a given histological section.

With `OC[C@H]1O[C@@H](Oc2ccc(O)cc2)[C@H](O)[C@@H](O)[C@@H]1O` [arbutin] the “decrease in melanin content (normalized integrated values of histograms)” value (ex vivo skin, 1%, 72 hours) was 32%, the “melanin content, visual observation (in words)” value (ex vivo skin, 1%, 72 hours) was “significant decrease in melanin content” and the “% of decrease (melanin content vs control)” value (ex vivo skin, applied twice a day over 72 hours, 1% (combination 1%/0.5%)) was −31.8%. For the same molecule, the “Area under curve (luminosity histogram)” value (ex vivo skin, applied twice a day over 72 hours, 1% (combination 1%/0.5%), control 54517) was 46247 and the Area/length (normalized to length of basal layer, applied twice a day over 72 hours, control 66.78) was 45.53 l/micron.
